The subject of assay [1] is HPV-16 immortalized human keratinocyte cell line. The assay is described as follows: Cell line test (MTT), keratinocyte proliferation. It counts as cell-based. Conditions: for IC50: read-out: MTT assay IG50; for anti-proliferative activity (in words): HPV-16 immortalized keratinocyte proliferation. The source says: 3-[4′,5′-Dimethylthiazol-2′-yl]-2,5-diphenyltetrazolium bromide (MTT), dimethyl sulphoxide (DMSO), isopropranol, foetal calf serum, and trypan blue were purchased from Sigma-Aldrich. Trypsin 250 was purchased from DIFCO. Ethylenediaminetetraacetic acid (EDTA), glucose, sodium phenol red, sodium chloride, potassium chloride, sodium hydrogen carbonate, potassium dihydrogen phosphate, and disodium hydrogen phosphate were purchased from BDH. Keratinocyte-SFM was purchased from GIBCO. For spectroscopic measurements, MRX Microplate Reader was used, which was controlled by Revelation Version 3.04.
The following solutions were prepared for use in the cell line test (MTT). • 1. Sodium chloride (8 g), potassium chloride (0.2 g), disodium hydrogen phosphate (1.15 g) and potassium dihydrogen phosphate (0.2 g) were dissolved in deionized water (1 L). This PBS solution was warmed to 37° C. at the time of use. • 2. Trypsin 250 (2.5 g), EDTA (0.2 g), glucose (1.0 g), potassium chloride (0.4 g), sodium chloride (8.0 g), sodium phenol red (0.002 g), and sodium hydrogen carbonate (0.58 g) were dissolved in deionized water (1 L). This solution was warmed to 37° C. at the time of use. • 3. Trypsin inhibitor solution was created by using feotal calf (1 ml) and was diluted in 100 ml of PBS. • 4. MTT powder (0.125 g) was dissolved in PBS buffer (25 ml) to give 5 mg/ml of MTT stock solution, which was stored at −20° C. and wrapped in foil to protect from light to create MTT stock solution. • 5. MTT stock solution was defrosted and diluted 1 in 10 in PBS buffer to give 0.5 mg/ml of working solution, which was prepared at the time of use to create an MTT working solution. • 5. Trypan blue solution was created by dissolving Trypan blue (0.04 g) in deionized water (10 ml).
The cell culture consisted of an HPV-16 immortalized human keratinocyte cell line from American Type Culture Collection (ATCC).
Cells were cultured in Serum-Free Keratinocyte Medium (Keratinocyte-SFM) supplemented with recombinant epidermal growth factor (rEGF) and bovine pituitary extract (BPE) in a T-75 flask under conditions of 5% C02 at 37° C. Fluid in the flask was changed with fresh complete medium every 3 days.
When cells grew to 60-80% confluence as determined under a microscope, the flask was washed with PBS. Small amount of trypsin-EDTA solution (1-2 ml) was added to the flask and incubated for 5 minutes at 37° C. When approximately 90% of the cells were dislodged, trypsin inhibitor solution (10 ml) was added to stop trypsin reaction. The cells were spun at 500 rpm for 10 minutes at room temperature. The cell pellet was gently resuspended in 10 ml of media. The basal cells were counted with a haemocytometer by adding trypan blue solution to determine viable cells. The cells were adjusted the density to 1×10^5 cells/mL in media.
A stock solution of each compound was prepared by dissolving compound (20 mg) in DMSO (1 ml), to give 20 mg/mL of stock solution.
A working solution was prepared by diluting a stock solution (20 μl) into media (1.98 ml) to give 200 μg/mL of working solution.
The following steps were performed to carry out the MMT experiment. 100 μl of resuspended cell suspension was added to test wells in 96-well plate, omitting column 11. Media was aspirated from each well after plate was incubated for 24 hours at 37° C., 5% CO2, then wells were washed with PBS. 100 μl of media containing 1% DMSO was added to each test well, omitting column 2. 200 μl of working solution of compound was added to each the wells, B2 to G2. 100 μl of solution was transferred to perform serial dilutions across the plate from column 2 up to column 9, and 100 μl of solution was discard from column 9. The plate was incubated for 3 days at 37° C., 5% C02. Media was removed, and wells were washed with PBS. Then 200 μl of MTT working solution was added to each well. After the plate was incubated for 2 hours at 37° C., MTT solution was removed and wells were washed with PBS. […]

Assay [2] relates to lipid peroxidation in bovine brain extract liposomes (hydroxyl radicals). The assay is described as follows: Antioxidant test, TBA assay (lipid peroxidation). The class given is biochemical. To be noted: for IC50: brain extract liposomes, FeCl3/ascorbic acid, 37° C. 30 min, absorbance 532 nm; for antioxidant activity (in words): scavenging hydroxyl radicals, protection against lipid peroxidation. As for the experimental part: Ascorbic acid and propylgallate were purchased from Aldrich. N-Butanol and ethanol were purchased from BDH. Butylated hydroxytoluene (BHT), bovine brain extract, FeCl3, thiobarbituric acid (TBA) and PBS (phosphate buffered saline) tablets were purchased from Sigma. For spectroscopic measurements, a UNICAM UVNIS Spectrometer (UV2) was used. A well-controlled water bath was utilized for incubating the test system at the required temperatures. Plastic falcon tubes were used to accommodate the assay. Accurate pipettes were used to dispense the reagents.
The following liposomes and reagents were prepared in order to carry out the experiments. • 1. Brain extract (50 mg) was weighed into a clean universal container. About 7 glass balls and 10 cm^3 of PBS were added. The mixture was sonicated in an ice-water bath until the lipid was suspended and the suspension was homogeneous and milky in appearance. The suspension was kept cool during the sonication, although care was taken not to overfill the bath with ice as the sonication becomes relatively ineffective. • 2. Ascorbic acid (0.0176 g) was dissolved in deionised water and diluted in 100 cm^3 of volumetric flask. • 3. Ferric chloride hexahydrate (0.0270 g) was dissolved in deionized water and diluted in 100 cm^3 of volumetric flask. • 4. Sodium hydroxide (1 g) was dissolved in 500 cm^3 of deionized water. • 5. Phosphate buffered saline was prepared (PBS, pH=7.4). • 6. HCl (338 cm^3, 37%) was diluted with 162 cm^3 deionized water to give 500 cm^3 of 25% HCl. • 7. BHT (5 g) was dissolved in 250 cm^3 ethanol. • 8. TBA (5 g) was added to 500 cm^3, 50 mM NaOH, and the solution was heated with stirring to dissolve all the TBA. • 9. PG (0.1061 g) was dissolved in 500 cm^3 deionized water. • 10. A stock solution of test compound at 10 mg/cm^3 was prepared, the concentration depended on the estimated activity of the substance, and serial dilutions were made to obtain 5.0, 2.5, 1.25, 0.625, 0.3125 and 0.15625 mg/cm^3. The stock solution and these six dilutions were screened in the lipid peroxidation—TEA test, in attempt to obtain a dose response curve for antioxidant efficacy against concentration for the substance.
Sixty-eight centrifuge tubes were numbered. • 1. Test substance (0.1 cm^3) was added to tubes; 10 mg/cm^3 to No. 13-20 of tubes, 5 mg/cm^3 to No. 21-28, 2.5 mg/cm^3 to No. 29-36, 1.25 mg/cm^3 to No. 37-44, 0.625 mg/cm^3 to No. 45-52, 0.3125 mg/cm^3 to No. 53-60, 0.15625 mg/cm^3 to No. 61-68. • 2. PG (0.1 cm^3) was added to 9-12. • 3. Ethanol (0.1 cm^3) was added to No. 5-8. • 4. Deionized water (0.3 cm^3) was added to No. 1-4, deionized water (0.4 cm^3) was added to No. 17-20, 25-28, 33-36, 41-44, 49-52, 57-60, and 65-68. • 5. Liposome (0.2 cm^3) was added to No. 1-4, 5-8, 9-12, 13-16, 21-24, 29-32, 37-40, 45-48, 53-56 and 61-64. • 6. PBS (0.5 cm^3) was added to all tubes. • 7. Ferric chloride (0.1 cm^3, 1 mM) was added to No. 5-8, 9-12, 13-16, 21-24, 29-32, 37-40, 45-48, 53-56, and 61-64. • 8. Ascorbic acid (0.1 cm^3, 1 mM) was added to No. 5-8, 9-12, 13-16, 21-24, 29-32, 37-40, 45-48, 53-56 and 61-64. • 9. The tubes were incubated at 37° C. for 30 min. • 10. BHT (0.1 cm^3, 2%), TBA (0.5 cm^3, 1%) and HCl (0.5 cm^3, 25%) were added to all tubes. • 11. The tubes were heated at 85-90° C. for […]. • 12. The tubes were removed from heater and cooled. • 13. N-Butanol (2.5 cm^3) was added to all tubes. The tubes were then shaken to mix and spun at 3500 rpm at room temperature for 10 min. • 14. N-Butanol (2.5 cm^3) was removed and placed in cuvettes. • 15. Absorbance at 532 nm on a spectrophotometer was recorded, using n-butanol as blank. • 16. The mean and standard deviation were calculated. The % inhibition was calculated using equation (1).
[formula] • All data are expressed and mean±SEM (n=4). % inhibition was used to construct the graph and calculate IC50.

Where [3] appears, read: HPV-16 immortalized human keratinocytes, 3 days incubation.
The mark [4] stands for this setting: Homo sapiens, Keratinocyte, 72 h, HPV-16 immortalized human keratinocytes, 3 days incubation.
The mark [5] stands for this setting: Homo sapiens, Keratinocyte, 72 h.

Read-outs that look alike come from different tables or passages of the source.

On to `CC(=O)NCCc1c[nH]c2ccc(O)cc12` [N-Acetylseratonin, N-acetylserotonin, reference compound], for which the IC50 in assay [1] (setting [3]) was greater than 917 µM; in assay [2] it was 750 µM. Moreover, the “anti-proliferative activity (in words)” value in assay [1] was “inactive”.

Consider `COc1ccc2[nH]cc(C=C[N+](=O)[O-])c2c1` [5-Methoxy-3-(2-nitroethenyl)-indole], for which the “anti-proliferative activity (in words)” value in assay [1] is “anti-proliferative effect”. The results for the IC50 in assay [1] (setting [4]) and in assay [2] were 15.5 µM and 2510 µM, respectively.

On to `COc1cc(OC)c2[nH]ccc2c1CCN` [4-(2-Aminoethyl)-5,7-dimethoxyindole], for which the IC50 is 53.9 µM in assay [1] (setting [3]), less than 100 µM in assay [1] (setting [4]) and 51 µM in assay [2].

Regarding `COc1cc(OC)c2[nH]ccc2c1C1C=NN(C(C)=O)C1` (stereo not shown) [1-Acetyl-4,5-dihydro-4-(5′,7′-dimethoxyindol-4′-yl)-1H-pyrazole], the IC50 came to 355 µM in assay [1] (setting [4]) and 1790 µM in assay [2].

Take `NCCc1c[nH]c2ccc(O)cc12` [serotonin, reference compound]: the “anti-proliferative activity (in words)” value in assay [1] is “inactive”.

`COc1cc(OC)c2[nH]ccc2c1C(C[N+](=O)[O-])C[N+](=O)[O-]` [5,7-Dimethoxy-4-{2′-nitro-1′-(nitromethyl)ethyl}indole]: the results for the IC50 in assay [1] (setting [5]) and in assay [2] were 145 µM and 3970 µM, respectively.

Regarding `COc1ccc2[nH]cc(CCN)c2c1OC` [4,5-Dimethoxytryptamine], the IC50 was 82.5 µM in assay [1] (setting [3]), less than 100 µM in assay [1] (setting [4]) and 97 µM in assay [2].

Regarding `COc1ccc2[nH]cc(C(C[N+](=O)[O-])C[N+](=O)[O-])c2c1OC` [4,5-Dimethoxy-3-bis(nitromethyl)methylindole], the IC50 was determined as 126 µM in assay [1] (setting [5]) and 1910 µM in assay [2].

With `COc1ccc2[nH]cc(CCNC(C)=O)c2c1` [Melatonin], the “anti-proliferative activity (in words)” value in assay [1] was “inactive”. The IC50 in assay [1] (setting [4]) is greater than 862 µM.

On to `COc1cc(OC)c2[nH]ccc2c1C=C[N+](=O)[O-]` [5,7-Dimethoxy-4-(2-nitroethenyl)-indole], for which the “anti-proliferative activity (in words)” value in assay [1] is recorded as “very low IG50 values comparative to dithranol”. Besides, the IC50 was 6.62 µM in assay [1] (setting [4]) and 600 µM in assay [2].

Turning to `COc1ccc2[nH]cc(CCNC(C)=O)c2c1OC` [4-Methoxymelatonin], in assay [1], the “anti-proliferative activity (in words)” value is reported as “much more activity than melatonin”. For the same compound, in assay [1] (setting [4]), the IC50 amounted to 119 µM. For the same compound, in assay [2], the IC50 worked out at 280 µM and the “antioxidant activity (in words)” value was “almost the same antioxidant activity as melatonin”.

On to N-ethylformylmelatonin, for which, in assay [1], the “anti-proliferative activity (in words)” value is given as “much more activity than melatonin”. For the same compound, the “antioxidant activity (in words)” value in assay [2] is “almost the same antioxidant activity as melatonin”.

As to `COc1cc(OC)c2[nH]cc(C=C[N+](=O)[O-])c2c1` [5,7-Dimethoxy-3-(2-nitroethenyl)-indole], the “anti-proliferative activity (in words)” value in assay [1] is given as “very low IG50 values comparative to dithranol”. The IC50 in assay [1] (setting [4]) came out at 13.5 µM; in assay [2] it was 810 µM.

With `COc1ccc2[nH]cc(C3C=NN(C(C)=O)C3)c2c1` (stereo not shown) [1-Acetyl-4,5-dihydro-4-(5′-methoxyindol-3′-yl)-1H-pyrazole], the “anti-proliferative activity (in words)” value in assay [1] is on record as “much more activity than melatonin”. For the same compound, the IC50 in assay [1] (setting [4]) was found to be 150 µM. In assay [2], the IC50 turned out to be 210 µM and the “antioxidant activity (in words)” value was “almost the same antioxidant activity as melatonin”.

With `COc1cc(OC)c2[nH]cc(C(C[N+](=O)[O-])C[N+](=O)[O-])c2c1` [5,7-Dimethoxy-3-bis(nitromethyl)methylindole], the “anti-proliferative activity (in words)” value in assay [1] is “anti-proliferative effect”. The IC50 in assay [1] (setting [5]) stood at 20.2 µM; in assay [2], 1660 µM.

Consider `COc1ccc2[nH]cc(C=C[N+](=O)[O-])c2c1OC` [4,5-Dimethoxy-3-(2-nitroethenyl)-indole], for which, in assay [1], the “anti-proliferative activity (in words)” value is recorded as “very low IG50 values comparative to dithranol”. Further, the IC50 is 22 µM in assay [1] (setting [4]) and 440 µM in assay [2].

The values above are taken from US8258173B2, “Melatonin derivatives and their use as antioxidants” (University of Sunderland, priority 2006, dated 2012).
